Data reported in US20240343694A1, “PYRIMIDINE DERIVATIVE, METHOD FOR PREPARING SAME, AND PHARMACEUTICAL COMPOSITION FOR PREVENTING OR TREATING CANCER COMPRISING SAME AS ACTIVE INGREDIENT” (KOREA RESERARCH INSTITUTE OF CHEMICAL TECHNOLOGY, priority 2021, published 2024).

Key:
EGFR A763_Y764insFHEA = EGFR A763_Y764insFHEA (Homo sapiens (Human), UniProt P00533, INS763FHEA); assay: HTRF inhibitory activity against EGFR mutant enzyme (EGFR A763_Y764insFHEA); assay type: biochemical; details: recombinant enzyme, 37° C. for 2 hours
Outline: (§1)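 Recombinant EGFR del19 or A763_Y764insFHEA was premixed with compound in 50 mM Tris pH 7.5 with 7.5 mM MgCl2 and 1 mM DTT. ATP (50 mM as printed) and biotin-peptide (0.5 mM) were added and reacted 2 h at 37 °C. The HTRF 665/615 read used streptavidin-XL665 and Eu anti-phosphotyrosine. IC50 was fitted from 7 concentrations.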

HER2 A775_G776insYVMA = HER2 A775_G776insYVMA (Homo sapiens (Human), UniProt P04626, INS775YVMA); assay: HTRF inhibitory activity against HER2 mutant enzyme; assay type: biochemical; details: recombinant enzyme, 37° C. for 2 hours
Outline: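 Recombinant HER2 A775_G776insYVMA preincubated with compound, then […] and biotinylated peptide ([…]) added; 2 h at 37 °C in Tris-HCl pH 7.5 buffer with MgCl2, DTT. HTRF detection (Eu anti-phosphotyrosine/streptavidin-XL665); IC50 from 7 concentrations.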

[1] = test system: Ba/F3 EGFR V769_D770insASV; assay: Growth inhibition of Ba/F3 EGFR mutant cells (CellTiter-Glo); assay type: cell-based; details: 72 hours
Outline: (§2)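 Ba/F3 cells expressing either EGFR insertion mutant were seeded at 1,000 cells/well and dosed 24 h later at eight concentrations from 0 to 10 μM. After 72 h, viability was read by CellTiter-Glo ATP signal. IC50 (μM) was fitted from the eight-point curves.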

[2] = test system: Ba/F3 EGFR D770_N771insSVD; assay: as above; assay type: cell-based; details: Ba/F3 EGFR-D770-N771ins_SVD, 72 hours
Outline: as §2

EGFR del19 = EGFR del19 (Homo sapiens (Human), UniProt P00533, DEL746-750); assay: HTRF inhibitory activity against EGFR mutant enzyme (EGFR del19); assay type: biochemical; details: recombinant enzyme, 37° C. for 2 hours
Outline: as §1

[3] = test system: Ba/F3 HER2 A775_G776insYVMA; assay: Growth inhibition of Ba/F3 HER2 mutant cells (CellTiter-Glo); assay type: cell-based; details: Mus musculus, BaF3, 72 hours
Outline: (§3)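 Ba/F3 cells carrying HER2 A775_G776insYVMA or G776delinsVC were seeded at 1,000 cells/well and dosed 24 h later at 0.01-10 μM (8 concentrations including 0). After 72 h, viability was read as cellular ATP by CellTiter-Glo luminescence, and IC50 values were calculated from the 8-point curves.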

Ba/F3 HER2 G776delinsVC = assay: as above; assay type: cell-based; details: Mus musculus, BaF3, 72 hours
Outline: as §3

Sequence of HER2 A775_G776insYVMA (P04626 other isoform, or with tags, fused parts or gaps del 1-675/ins YVMA behind 775 limits assumed): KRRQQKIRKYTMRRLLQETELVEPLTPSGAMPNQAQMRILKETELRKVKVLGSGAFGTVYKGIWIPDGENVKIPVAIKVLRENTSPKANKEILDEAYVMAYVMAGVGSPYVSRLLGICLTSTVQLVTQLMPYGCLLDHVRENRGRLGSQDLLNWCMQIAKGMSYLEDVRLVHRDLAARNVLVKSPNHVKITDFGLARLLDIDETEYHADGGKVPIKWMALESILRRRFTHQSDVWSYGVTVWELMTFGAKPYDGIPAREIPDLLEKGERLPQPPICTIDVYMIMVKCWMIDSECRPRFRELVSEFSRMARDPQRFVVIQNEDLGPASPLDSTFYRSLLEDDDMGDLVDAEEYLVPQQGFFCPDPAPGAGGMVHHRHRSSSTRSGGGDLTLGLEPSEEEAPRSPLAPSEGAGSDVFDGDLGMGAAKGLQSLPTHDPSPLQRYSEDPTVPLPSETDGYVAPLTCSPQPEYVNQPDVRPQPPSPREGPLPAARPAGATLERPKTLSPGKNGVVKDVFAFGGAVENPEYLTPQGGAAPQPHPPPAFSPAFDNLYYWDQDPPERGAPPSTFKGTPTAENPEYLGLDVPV
Sequence of EGFR A763_Y764insFHEA (P00533 other isoform, or with tags, fused parts or gaps del 1-694/ins FHEA behind 763 limits assumed): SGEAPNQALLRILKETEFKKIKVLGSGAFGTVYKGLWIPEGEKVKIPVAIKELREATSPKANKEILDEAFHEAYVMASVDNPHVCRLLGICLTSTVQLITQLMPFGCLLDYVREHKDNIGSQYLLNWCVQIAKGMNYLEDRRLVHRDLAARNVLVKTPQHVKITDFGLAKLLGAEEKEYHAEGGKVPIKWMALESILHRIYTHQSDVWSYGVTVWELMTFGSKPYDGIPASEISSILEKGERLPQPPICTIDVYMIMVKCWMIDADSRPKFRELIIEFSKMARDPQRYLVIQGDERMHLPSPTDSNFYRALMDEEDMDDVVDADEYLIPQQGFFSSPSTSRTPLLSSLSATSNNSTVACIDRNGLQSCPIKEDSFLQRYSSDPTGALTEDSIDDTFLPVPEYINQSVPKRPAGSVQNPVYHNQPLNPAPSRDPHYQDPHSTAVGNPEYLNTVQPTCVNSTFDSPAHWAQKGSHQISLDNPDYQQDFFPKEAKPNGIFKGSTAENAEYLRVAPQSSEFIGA
Sequence of EGFR del19 (P00533 other isoform, or with tags, fused parts or gaps del 1-668/del 746-750 limits assumed): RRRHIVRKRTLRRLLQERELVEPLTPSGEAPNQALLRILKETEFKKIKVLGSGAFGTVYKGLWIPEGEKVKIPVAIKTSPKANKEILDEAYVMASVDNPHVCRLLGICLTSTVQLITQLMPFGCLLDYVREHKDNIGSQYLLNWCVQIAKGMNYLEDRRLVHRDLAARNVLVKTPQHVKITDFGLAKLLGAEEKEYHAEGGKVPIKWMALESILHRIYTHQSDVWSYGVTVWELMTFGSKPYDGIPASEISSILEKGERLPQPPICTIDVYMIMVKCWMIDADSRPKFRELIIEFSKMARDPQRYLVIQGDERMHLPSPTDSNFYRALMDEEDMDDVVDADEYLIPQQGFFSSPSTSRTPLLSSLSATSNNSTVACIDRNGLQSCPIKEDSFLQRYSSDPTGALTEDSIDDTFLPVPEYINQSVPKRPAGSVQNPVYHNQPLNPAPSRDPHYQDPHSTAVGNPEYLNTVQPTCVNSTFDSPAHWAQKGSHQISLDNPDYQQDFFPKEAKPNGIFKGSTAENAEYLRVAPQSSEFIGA

| IC50 (EGFR A763_Y764insFHEA) | IC50 (HER2 A775_G776insYVMA) | IC50 [1] | IC50 [2] | IC50 (EGFR del19) | IC50 [3] | IC50 (Ba/F3 HER2 G776delinsVC) | SMILES |
| --- | --- | --- | --- | --- | --- | --- | --- |
| 0.001 µM | 0.009 µM | 0.03 to 0.05 µM | 0.03 to 0.05 µM | < 0.001 µM | 0.05 to 0.1 µM | < 0.01 µM | C=CC(=O)Nc1cc(Nc2ncc(Cl)c(Nc3cccc(CC)c3N(C)S(C)(=O)=O)n2)c(OC)cc1N(C)CCN(C)C [Example 41, N-(5-((5-chloro-4-((3-ethyl-2-(N-methylmethylsulfonamido)phenyl)amino)pyrimidin-2-yl)amino)-2-((2-(dimethylamino)ethyl)(methyl)amino)-4-methoxyphenyl)acrylamide] |
| 0.02 µM | 0.157 µM | 0.03 to 0.05 µM | 0.03 to 0.05 µM | 0.002 µM | > 0.1 µM | < 0.01 µM | C=CC(=O)Nc1cc(Nc2ncc(Cl)c(Nc3cccc(C)c3NC(C)=O)n2)c(OC)cc1N(C)CCN(C)C [Example 86, N-(5-((4-((2-acetamido-3-methylphenyl)amino)-5-chloropyrimidin-2-yl)amino)-2-((2-(dimethylamino)ethyl)(methyl)amino)-4-methoxyphenyl)acrylamide] |
| 0.001 µM | 0.01 µM | 0.01 to 0.03 µM | 0.01 to 0.03 µM | < 0.001 µM | 0.05 to 0.1 µM | 0.01 to 0.03 µM | C=CC(=O)Nc1cc(Nc2ncc(Cl)c(Nc3cccc(C)c3NS(C)(=O)=O)n2)c(OC)cc1N(C)CCN(C)C [Example 36, N-(5-((5-chloro-4-((3-methyl-2-(methylsulfonamido)phenyl)amino)pyrimidin-2-yl)amino)-2-((2-(dimethylamino)ethyl)(methyl)amino)-4-methoxyphenyl)acrylamide] |
| 0.002 µM | 0.026 µM | 0.05 to 0.1 µM | 0.05 to 0.1 µM | < 0.001 µM | 0.05 to 0.1 µM | 0.03 to 0.05 µM | C=CC(=O)Nc1cc(Nc2ncc(Cl)c(Nc3cccc(C(C)C)c3N(C)S(C)(=O)=O)n2)c(OC)cc1N(C)CCN(C)C [Example 37, N-(5-((5-chloro-4-((3-isopropyl-2-(N-methylmethylsulfonamido)phenyl)amino)pyrimidin-2-yl)amino)-2-((2-(dimethylamino)ethyl)(methyl)amino)-4-methoxyphenyl)acrylamide] |
